Experimental data reported in article PMC6154633, “In Vitro Anticancer Activity and Structural Characterization of Ubiquinones from Antrodia cinnamomea Mycelium” (Molecules : A Journal of Synthetic Chemistry and Natural …, 2017).

How the values were obtained:
[1] = test system: HepG2 cells; test: Cytotoxicity, cell counting kit-8 assay, HepG2; type: cell-based; conditions: Homo sapiens, 24 h treatment, mean n = 3
Experimental: (§1) Three human cancer cell lines (A549, HepG2 and PC3) and normal cell line (MDCK) were obtained from the ATCC (Manassas, VA, USA) and grown on Eagle’s minimum essential medium (EMEM, GIBCO, Waltham, MA, USA) supplemented with F12 medium containing 10% FBS, 100 IU/mL penicillin and 100 μg/mL streptomycin [17].
(§2) Viability of the human cancer cell lines and normal cell line treated with different concentrations of A. cinnamomea extracts, subfractions, and isolates was evaluated using the cell counting kit-8 assay. Briefly, a total of 5 × 10^3 cells/well (A549, HepG2, PC3, or MDCK cells) were seeded into 96-well plates for 12 h, and the cells were treated with various concentrations of the isolated compounds (0.01–100 μM, double dilution method) for 24 h. The original medium was removed, 10% of the cell counting kit-8 in PBS was added to each well, and the plates were incubated for 2 h. The absorbance was measured at 540 nm using an enzyme-linked immunosorbent assay (ELISA) plate reader.
(§3) All experiments were carried out in triplicate, and each experiment was repeated three times. Data analysis was carried out using SPSS statistical package version 18.0 (SPSS, Inc., Armonk, NY, USA). The IC50 values (the concentration of drug necessary to induce 50% inhibition) were measured for all of the tested drugs using the Probit test in the SPSS software. The cell cycle distribution values of mean and standard deviation (mean ± SD) and 95% confidence intervals (CI) of means to verify the statistical significance of all parameters were calculated. The p-values of < 0.05 were adopted as statistically significant. All data are presented in this report as means ± SD of three replicates from three separate experiments.

[2] = test system: MDCK cells; test: Cytotoxicity, cell counting kit-8 assay, MDCK normal cell line; type: cell-based; conditions: Canis lupus familiaris, non-malignant cell line, 24 h treatment, mean n = 3
Experimental: as §1, §2, §3

[3] = test system: A549 cells; test: Cytotoxicity, cell counting kit-8 assay, A549; type: cell-based; conditions: Homo sapiens, mean n = 3
Experimental: as §1, §2, §3

[4] = test system: PC3 cells; test: Cytotoxicity, cell counting kit-8 assay, PC3; type: cell-based; conditions: Homo sapiens, PC-3, mean n = 3
Experimental: as §1, §2, §3

[5] = test system: A549, HepG2, and PC3 cell lines; test: Cytotoxicity against three human cancer cell lines (summary statements); type: cell-based; conditions: in words
Experimental: as §1, §2, §3

[6] = test system: HepG2 cells; test: Cell cycle distribution analysis by flow cytometry (PI staining); type: cell-based, human; conditions: for G1 (%) / G2-M (%) / S (%) / sub G1 (%): 24 h, HepG2, mean ± SD
Experimental: Stock solutions of 4-acetylantrocamol LT3 (20 mM) were prepared by dissolving them in DMSO, and appropriate working dilutions were prepared with the cell culture medium prior to the experiments. For cell cycle distribution analysis, HepG2 cells were treated with DMSO (control) and 4-acetylantrocamol LT3 for 24 h. The cells were then fixed in ice-cold 70% methanol for overnight. After an additional wash with PBS, the cell pellets were stained with 1 mL of propidium iodide (PI) staining solution containing 200 μg of PI in 1 mL of PBS containing 2 mg of DNase free RNase for 30 min. Acquisition and analysis were performed by flow cytometry (FACSCalibur flow cytometer, Becton, Dickinson and Co., Franklin Lakes, NJ, USA) with excitation at 488 nm. Data on each sample represent the percentage of cells in the sub-G1, G1, S, G2/M phases of the cell cycle, respectively.
as §3

SMILES | IC50 [1] | IC50 [2] | IC50 ([3]; A549, 24 h, 24 h treatment) | IC50 ([4]; 24 h treatment) | also measured
COc1cc([C@@H]2c3cc4c(cc3[C@@H](O[C@@H]3O[C@@H]5CO[C@@H](C)O[C@H]5[C@H](O)[C@H]3O)[C@H]3COC(=O)[C@H]23)OCO4)cc(OC)c1O [Vepesid, reference compound] | 4.05 µM | – | – | – | –
COC1=C(OC)[C@H](O)[C@H](C/C=C(\C)CC/C=C(\C)CCC=C(C)C)[C@@H](C)C1=O [Compound 5, antroquinonol] | 0.044 µM | 10.5 µM | 0.421 µM | 0.073 µM | –
CC(C)=CCOc1ccc(C2=C(CC(C)C)C(=O)OC2=O)cc1 [Compound 11, antrodin A] | 90.4 µM | > 100 µM | > 100 µM | > 100 µM | activity against the cancer cell lines [5]: poor activity
COC1=C(OC)[C@H](O)[C@H](C/C=C(\C)CC/C=C(\C)C/C=C/C(C)(C)O)[C@@H](C)C1=O [Compound 4, antrocamol LT3] | 0.106 µM | > 100 µM | – | 0.001 µM | –
COC1=C(OC)[C@H](O)[C@H](C/C=C(\C)CC/C=C(\C)C[C@H]2C[C@@H](C)C(=O)O2)[C@@H](C)C1=O [Compound 7, antroquinonol B] | 21.4 µM | > 100 µM | 6.03 µM | 1.03 µM | –
COC1=C(OC)[C@H](OC(C)=O)[C@H](C/C=C(\C)CC/C=C(\C)C/C=C/C(C)(C)O)[C@@H](C)C1=O [Compound 2, 4-acetylantrocamol LT3] | 0.128 µM | > 100 µM | 0.027 µM | 4.29 µM | G1 (%) ([6]; 1 μM): 37.4 ± 4.2%; G2-M (%) ([6]; 1 μM): 33.6 ± 4.7%; S (%) ([6]; 1 μM): 15.4 ± 1.6%; sub G1 (%) ([6]; 1 μM): 6.0 ± 0.7%; G1 (%) ([6]; 10 μM): 32.9 ± 2.4%; G2-M (%) ([6]; 10 μM): 33.6 ± 5.6%; S (%) ([6]; 10 μM): 19.3 ± 4.9%; sub G1 (%) ([6]; 10 μM): 9.2 ± 2.1%; sub-G1 phase accumulation compared with control cells ([6]; HepG2, 24 h, dose dependent): 4–7 fold
COc1cc(C)c(O)c(OC)c1O [Compound 10, 2,4-dimethoxy-6-methyl-benzene-1,3-diol] | > 100 µM | > 100 µM | > 100 µM | > 100 µM | activity against the cancer cell lines [5]: poor activity
COc1cc(C)c(OC)c2c1OCO2 [Compound 9, 4,7-dimethoxy-5-methyl-1,3-benzodioxole] | > 100 µM | > 100 µM | > 100 µM | 13.3 µM | activity against the cancer cell lines [5]: poor activity
COC1=C(OC)[C@H](OC(C)=O)[C@H](C/C=C(\C)CC/C=C(\C)C[C@H]2C[C@@H](C)C(=O)O2)[C@@H](C)C1=O [Compound 8, 4-acetylantroquinonol B] | > 100 µM | > 100 µM | 35.9 µM | 20.3 µM | –
COC1=C(OC)[C@H](OC(C)=O)[C@H](C/C=C(\C)CC/C=C(\C)CCC=C(C)C)[C@@H](C)C1=O [Compound 6, 4-acetylantroquinonol] | 0.075 µM | 41.6 µM | 0.611 µM | 2.31 µM | –
COC1=C(OC)C(=O)C(C/C=C(\C)CC/C=C(\C)CCC=C(C)C)=C(C)C1=O [Compound 3, quinone Q3] | > 100 µM | > 100 µM | 4.16 µM | 0.06 µM | –
COC1=CC(=O)C(CC=C(C)CCC=C(C)CCC=C(C)C)=C(C)C1=O [Compound 1, 5-methoxy-3-methyl-2-(3,7,11-trimethyldodeca-2,6,10-trienyl)cyclohexa-2,5-diene-1,4-dione] | > 100 µM | > 100 µM | 0.382 µM | 0.014 µM | –
CC(=O)O[C@H]1C(=O)[C@@]2(C)[C@H]([C@H](OC(=O)c3ccccc3)[C@]3(O)C[C@H](OC(=O)[C@H](O)[C@@H](NC(=O)c4ccccc4)c4ccccc4)C(C)=C1C3(C)C)[C@]1(OC(C)=O)CO[C@@H]1C[C@@H]2O [Taxol, reference compound] | – | – | – | – | IC50 ([3]; A549, positive control, unit given in row label): 0.000354 µM; IC50 ([4]; positive control, unit given in row label): 0.000461 µM
